Laboratory results from patent publication US20130045162A1, “DELIVERY SYSTEM FOR SPECIFICALLY TARGETING CANCER CELLS AND METHOD OF USE THEREOF” (MOREHOUSE SCHOOL OF MEDICINE, priority 2011, published 2013).
Where two headings read alike, the source gives them in different places.

What was measured:
[1] = parameters: species or system mice; conditions: mouse, in vivo
Description: Serum is collected at sacrifice and urea N2, creatine, P, Ca, Na, K, Cl, bicarbonate, alkaline phosphatase, alanine transaminase (ALT), aspartate aminotransferase (AST), creatine kinase (CK), cholesterol, total bilirubin, total protein, albumin, globulin, albumin/globulin ratio, glucose and amylase are measured.

[2] = system: DU145 (prostate cancer cell line); experiment: DU145 apoptosis, ImageStream (TUNEL/DRAQ5); format: cell-based; conditions: 20 uM, 1 hour, wash, 48 hours
Description: (§1) DU145 (prostate cancer cell line) and PrEC (primary prostatic epithelial cells) cells were treated with cisplatin solution or cisplatin-containing and cancer cell-binding peptides (I, II, III, and IV)- or folate-conjugated polycaprolactone-coated PBM nanoparticles, or uncoated nanoparticles. […] Apoptotic cells were identified using two standard image based features from the IDEAS package: Area and Spot Small Total. Condensed apoptotic nuclei have lower nuclear area value as compared to live cells.

[3] = system: BrCa cells (MCF-7, MDA-MB-231, and 4T1); experiment: BrCa cell death / apoptosis in culture; format: cell-based; conditions: 20 μM, after 24 hr of culture
From the text: (§2) The folate coated PBM nanoparticles are further loaded with docetaxel, carboplatin, or cisplatin. […] However, PBM nanoparticles containing 10× less chemotherapeutic agent were taken up and induced the same level of BrCa cell apoptosis as cisplatin, docetaxel, or carboplatin solution, respectively, but not primary breast epithelial cells. […] Accordingly, the novel PBM nanoparticles of the present application enhance BrCa therapy efficacy, reduce toxicities, and increase breast tumor immunity.

[4] = system: normal (primary) breast epithelial cells; experiment: normal breast epithelial cell death / apoptosis in culture; format: cell-based; conditions: 20 μM, after 24 hr of culture
From the text: as §2

[5] = system: PrEC (primary prostatic epithelial cells); experiment: PrEC apoptosis, ImageStream (TUNEL/DRAQ5); format: cell-based; conditions: 20 uM, 1 hour, wash, 48 hours
Description: as §1

[6] = system: MDA-MB-231-Luc xenografts; experiment: tumor regression in MDA-MB-231-luc tumor-bearing mice; format: in vivo; conditions: 8 mg/kg/week, intravenous injection
PC3-luc tumor = experiment: tumor regression in PC3-luc tumor-bearing mice; format: in vivo; conditions: 8 mg/kg/week, intravenous injection
[7] = system: PCa cells (PC3 and PTEN-CaP2); experiment: PCa cell death / apoptosis in vitro; format: cell-based, human; mouse; conditions: 20 μM
[8] = system: normal prostatic epithelial cells (PrEC and RWPE-1); experiment: normal prostatic epithelial cell death in vitro; format: cell-based; conditions: 20 μM
[9] = system: spontaneous PCa in PBcre4+cPten−/− luc+ and PBcre4+cPten−/− luc+ cav1+ mice; experiment: Example 6 spontaneous prostate tumor model (cPten−/− luc mice); format: in vivo; conditions: for metastatic lesions: alone or encapsulated
From the text: PBM nanoparticle effects on spontaneous tumor and Treg cell development are examined using cPten^−/−PBcre4^+luc^+ or cPten^−/−PBcre4^+luc^+cav1^+ (castrated or noncastrated) mice. Pten^floxed/floxedluc^+ without the Cre gene, which serve as negative tumor controls, and male cPten^−/− PBcre4^+luc^+ or cPten^−/−PBcre4^+luc^+cav1^+ (castrated or noncastrated) mice are imaged every week during PCa development from murine PIN (6 weeks of age), invasive adenocarcinoma (>9 weeks of age), and metastatic lymph node, lung and possibly bone at 12 weeks of age. After 9 weeks of age, tumors are allowed to progress to a net increase of 10^5 photons/sec/cm^2 from luminescence detected in mice <9 weeks of age. A set of mice is castrated to study androgen-independent hormone refractory PCa and another set is not castrated to further study the progression of PTEN-mediated PCa with androgens. […] Microscopic and morphometric analysis determine the significance of treatments on prostate tumor apoptosis and change in the frequency or survival of secretory luminal, basal, neuroendocrine and proliferating PCa cells. […] The proliferation of purified T lymphocytes is measured after CD3 plus CD28 stimulation (i.e., incubation on antibody-coated plates) with or without FR4 to assess Th1/Th2 cell proliferation. […]
Despite being homozygous for Pten gene deletion, the individual PBcre4^+ cPten^−/− luc^+ and PBcre4^+ cPten^−/− luc^+ cav1^+ mice will have different copies of active luciferase (L) gene. The copy number of trans L genes are determined and confirmed by multiplex polymerase chain reaction amplification and Southern blot analysis to insure the number of L genes responsible for luciferase will not change from experiment to experiment. […]

[10] = system: PC3-luc and PTEN-CaP2-luc tumor; experiment: Example 5 intratibia PC3-luc / PTEN-CaP2-luc tumor model; format: in vivo, mice; conditions: intravenous
Description: To mimic advanced (bone metastasis) PCa, NIH-III or B6 male mice receiving vitamin D-deficient or normal diets are injected in left tibia with PC3-luc or PTEN-CaP2-luc cells, respectively. […] Microscopic and morphometric analysis determine the significance of treatments on prostate tumor apoptosis and change in the frequency or survival of PCa cells. […] Blood samples are used to determine serum docetaxel and oxaliplatin PK/PD by mass spectrometry.
NIH-III and B6 male mice are purchased from Jackson Laboratories. Animals are housed and maintained in microbial isolator cages under conventional housing conditions at the Morehouse School of Medicine's animal facility. The guidelines proposed by the committee for the Care of Laboratory Animal Resources Commission of Life Sciences—National Research Council are followed to minimize animal pain and distress. Eight to ten week old mice are injected in the right tibia with 10^6 PTEN-P2-luc (matched benign), PTEN-CaP2-luc (prostate adenocarcinoma), or PC3-luc cells. To assess the affects of hormone ablation on cytotoxic drug or PBM nanoparticle susceptibility, another group of mice is castrated after prostate tumor detection.

PTEN-CaP2-luc tumor = experiment: Example 7 PTEN-CaP2-luc tumor in B6 and B6.Xpc−/− mice; format: in vivo
Description: (§3) To mimic advanced (bone metastasis) PCa in ERCC1 variant individuals, B6 and B6.Xpc^−/− mice are injected in left tibia PTEN-CaP2-luc cells. Tumor progression is followed non-invasively in non-castrated mice using our Caliper/Xenogen IVIS-100 imaging system. After tumors emit luminescence >10^5 photons/sec/cm^2, one set of mice is castrated (i.e., to mimic androgen ablation) and the second set is not. […] Mice are imaged every week to monitor tumor progression/regression. When tumors in negative control (saline vehicle treated only) exceed 10^8 photons/sec/cm^2, groups in each set are sacrificed. […] The number and activity of peripheral, lymph node and tumor-associated lymphocytes are isolated and CD4^+ T cells affinity purified and intracellularly and surface stained for flow cytometry analysis of Th1, Th2, Th17, and cell frequency as before. Specifically, the proliferation of purified T lymphocytes after CD3 plus CD28 stimulation with or without FR4 to access Th1/Th2 cell proliferation as before. Along with weekly bioluminescence imaging, blood chemistry and peripherial blood leukocyte subpopulations are monitored to evaluate tumor- or drug-associated toxicities that may be associated with Xpc deficiency.

[11] = mouse, in vivo
Description: as §3

[12] = Example 7 systemic toxicities in B6 and B6.Xpc−/− mice; conditions: B6.Xpc−/− mice compared to B6 mice
Description: as §3

[13] = cited from earlier work
FR2 = FR2 (Homo sapiens, UniProt P14207); conditions: read-out: affinity for FR2; cited from earlier work
FR2, sequence (P14207 17-230): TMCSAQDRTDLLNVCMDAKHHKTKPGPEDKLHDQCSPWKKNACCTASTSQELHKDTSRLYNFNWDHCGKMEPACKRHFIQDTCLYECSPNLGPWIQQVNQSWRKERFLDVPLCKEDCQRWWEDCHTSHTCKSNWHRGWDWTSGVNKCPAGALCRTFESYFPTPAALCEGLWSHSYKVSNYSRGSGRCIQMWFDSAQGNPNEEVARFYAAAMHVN

FR1 = FR1 (Homo sapiens, UniProt P15328); conditions: read-out: affinity for FR1; cited from earlier work
FR1, sequence (P15328 25-234): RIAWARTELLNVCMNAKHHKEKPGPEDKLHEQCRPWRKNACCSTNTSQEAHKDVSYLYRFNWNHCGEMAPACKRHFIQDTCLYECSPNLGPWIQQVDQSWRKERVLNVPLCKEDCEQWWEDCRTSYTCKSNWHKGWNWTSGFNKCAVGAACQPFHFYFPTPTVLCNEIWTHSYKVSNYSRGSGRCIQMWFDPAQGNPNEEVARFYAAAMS

[14] = optimal dose 10 mg/kg/week, both B6 and B6.Xpc−/− mice

SMILES: [NH2][Pt]([NH2])([Cl])[Cl] [Cisplatin solution, cisplatin]
- Albumin [1]: 4.2 ± 0.6 g/dL
- Albumin/Globulin ratio [1]: 4.22 ± 2.41
- Alk Phos [1]: 160 ± 34.64 U/L
- Amylase [1]: 2062 ± 371.44 U/L
- Bicarbonate [1]: 10.2 ± 1.04 mmol/fL
- CK [1]: 3975 ± 45 U/L
- Calcium [1]: 1.2 ± 0 mg/dL
- Cholestrol [1]: 84 ± 10.39 mg/dL
- Cl [1]: 106 ± 3.46 mEq/l
- Creatinin [1]: 0.8 ± 0.35 mg/dL
- Globulins [1]: 1.2 ± 0.6 g/dL
- Glucose [1]: 52 ± 17.32 mg/dL
- K [1]: 9.2 ± 012 mEg/l
- Na [1]: 152 ± 3.46 mEq/l
- Phosphorus [1]: 72 ± 0 mg/dL
- Total Bilirubin [1]: 0.6 ± 0 mg/dL
- Total protein [1]: 5 ± 0.35 g/dL
- Urea N2 [1]: 36 ± 0 mg/dL
- apoptosis of DU145 cells [2]: apoptosis of both DU145 and PrEC cells
- cell death [3]: > 90%
- cell death [4]: > 90%
- apoptosis of PrEC cells [5]: apoptosis of both DU145 and PrEC cells
- tumor regression [6]: significant (and similar) tumor regression
- tumor regression (PC3-luc tumor): significant (and similar) tumor regression
- cell death [7]: > 90%
- cell death [8]: > 90%

SMILES: CC(=O)O[C@@]12CO[C@@H]1C[C@H](O)[C@@]1(C)C(=O)[C@H](O)C3=C(C)[C@@H](OC(=O)[C@H](O)[C@@H](NC(=O)OC(C)(C)C)c4ccccc4)C[C@@](O)([C@@H](OC(=O)c4ccccc4)[C@H]21)C3(C)C [docetaxel]
- metastatic lesions [9]: fewer metastatic lesions
- tumor regression ([10]; optimal dose 10 mg/kg/week): tumor regression
- tumor regression ([10]; suboptimal dose 0.1 mg/kg/week): not suboptimal
- tumor regression (PTEN-CaP2-luc tumor; [14]): tumor regression
- tumor regression (PTEN-CaP2-luc tumor; suboptimal dose 0.1 mg/kg/week): not suboptimal
- toxicities (elevated AST & ALT, hypocalcemia and hypoglycemia) [11]: significantly higher toxicities

SMILES: O=C1[O][Pt]2([NH][C@@H]3CCCC[C@H]3[NH]2)[O]C1=O [oxaliplatin]
- metastatic lesions [9]: fewer metastatic lesions
- neuroendocrine differentiation ([9]; mouse, in vivo): reduced
- tumor regression ([10]; optimal dose 10 mg/kg/week): tumor regression
- tumor regression ([10]; suboptimal dose 0.1 mg/kg/week): not suboptimal
- tumor regression (PTEN-CaP2-luc tumor; [14]): tumor regression
- tumor regression (PTEN-CaP2-luc tumor; suboptimal dose 0.1 mg/kg/week): not suboptimal
- toxicities (elevated AST & ALT, hypocalcemia and hypoglycemia) [12]: significantly higher toxicities

SMILES: COc1cc(/C=C/C(=O)CC(=O)/C=C/c2ccc(O)c(OC)c2)ccc1O [Free curcumin, diferuloylmethane]
- solubility in water [13]: completely insoluble in water

SMILES: CN1c2c(nc(N)[nH]c2=O)NC[C@@H]1CNc1ccc(C(=O)N[C@@H](CCC(=O)O)C(=O)O)cc1 [6S 5-methyltetrahydrofolate]
- Kd (FR2): 1 nM
- Kd (FR1): 55 nM
